From US20140187548A1, “6 SUBSTITUTED IMIDAZOPYRAZINES FOR USE AS MPS-1 AND TKK INHIBITORS IN THE TREATMENT OF HYPERPROLIFERATIVE DISORDERS” (BAYER INTELLECTUAL PROPERTY GMBH, priority 2010, published 2014) come the findings set out here.

What is called IC50 is the midpoint of a concentration-inhibition curve.

The test deals with T1, human kinase Mps-1 (Homo sapiens, UniProt P33981).
T1 construct: N-terminally GST-tagged human full length recombinant Mps-1 kinase; GST (N); purchased Invitrogen, Karslruhe, Germany PV4071
T1 sequence (P33981 1-857): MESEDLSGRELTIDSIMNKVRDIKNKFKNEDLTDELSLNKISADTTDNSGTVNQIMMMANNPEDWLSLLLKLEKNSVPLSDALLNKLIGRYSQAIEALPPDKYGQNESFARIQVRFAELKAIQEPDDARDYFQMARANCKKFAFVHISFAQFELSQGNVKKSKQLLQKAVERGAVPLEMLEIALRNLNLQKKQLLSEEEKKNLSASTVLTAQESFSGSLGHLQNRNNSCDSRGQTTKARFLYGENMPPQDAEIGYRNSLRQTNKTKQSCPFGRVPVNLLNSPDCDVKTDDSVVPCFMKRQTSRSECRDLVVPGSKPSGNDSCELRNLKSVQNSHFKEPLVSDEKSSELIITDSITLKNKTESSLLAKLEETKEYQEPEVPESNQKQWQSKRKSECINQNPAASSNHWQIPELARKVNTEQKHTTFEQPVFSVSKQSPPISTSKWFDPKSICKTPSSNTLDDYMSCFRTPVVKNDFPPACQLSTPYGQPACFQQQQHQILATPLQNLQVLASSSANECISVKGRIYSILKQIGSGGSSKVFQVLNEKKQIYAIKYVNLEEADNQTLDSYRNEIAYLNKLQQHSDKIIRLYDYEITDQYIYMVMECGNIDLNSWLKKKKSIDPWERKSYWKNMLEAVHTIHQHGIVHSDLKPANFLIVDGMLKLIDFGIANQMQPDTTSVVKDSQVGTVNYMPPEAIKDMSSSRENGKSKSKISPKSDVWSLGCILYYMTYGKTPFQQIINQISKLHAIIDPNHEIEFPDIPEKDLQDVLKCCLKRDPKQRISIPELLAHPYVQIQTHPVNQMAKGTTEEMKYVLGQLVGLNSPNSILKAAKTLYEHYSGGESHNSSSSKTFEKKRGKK
As to the kind of experiment: Mps-1 kinase assay (TR-FRET). The class given is biochemical. As to conditions: N-terminally GST-tagged human full length recombinant Mps-1; 10 μM ATP; 1 μM peptide substrate; 15 min pre-incubation; 60 min at 22° C. The method, boiled down: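 TR-FRET read-out: after 1 h binding at 22° C, Eu-labelled anti-phospho-Ser/Thr antibody transfers to SA-XLent on the phosphorylated biotinylated peptide. The enzyme is GST-tagged full-length human Mps-1, typically about 1 nM final, in the linear range.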
A general note: In TR-FRET formats the signal depends on donor and acceptor labels being close together.
Turning to `Cc1cn2c(-c3ccc(C(=O)NC4CC4)cc3)cnc2c(NCC(C)C)n1` [Example 1-88, N-cyclopropyl-4-{6-methyl-8-[(2-methyl-propyl)amino]imidazo [1,2-a]pyrazin-3-yl} benzamide], the IC50 was found to be 11.9 nM.

`CC(C)CNc1nc(-c2ccc(N3CCNCC3)cc2)cn2c(-c3ccc(C(=O)NC4CC4)cc3)cnc12` [Example 1-89, N-cyclopropyl-4-{8-[(2-methylpropyl)amino]-6-[4-(piperazin-1-yl)phenyl]imidazo[1,2-a]pyrazin-3-yl}benzamide]: the IC50 was 2 nM.

As to `CC(C)CNc1nc(-c2ccc(N3CCN(C)CC3)cc2)cn2c(-c3ccc(C(=O)NC4CC4)cc3)cnc12` [Example 1-90, N-cyclopropyl-4-{6-[4-(4-methylpiperazin-1-yl)phenyl]-8-[(2-methyl-propyl)amino]imidazo [1,2-a]pyrazin-3-yl} benzamide], the IC50 turned out to be 1.6 nM.

For the molecule `CC(C)CNc1nc(-c2ccc(N3CCOCC3)cc2)cn2c(-c3ccc(C(=O)NC4CC4)cc3)cnc12` [Example 1-91, N-cyclopropyl-4-{8-[(2-methylpropyl)amino]-6-[4-(morpholin-4-yl)phenyl]imidazo[1,2-a]pyrazin-3-yl}benzamide], the IC50 turned out to be 1.5 nM.

On to `CC(C)CNc1nc(-c2ccc(N(C)C)cc2)cn2c(-c3ccc(C(=O)NC4CC4)cc3)cnc12` [Example 1-92, N-cyclopropyl-4-{6-[4-(dimethylamino)phenyl]-8-[(2-methylpropyl)amino]imidazo[1,2-a]pyrazin-3-yl}benzamide], for which the IC50 turned out to be 7.6 nM.

Take `CC(C)CNc1nc(-c2ccc(F)cc2)cn2c(-c3ccc(C(=O)NC4CC4)c(Cl)c3)cnc12` [Example 1-93, 2-chloro-N-cyclopropyl-4-{6-(4-fluorophenyl)-8-[(2-methylpropyl)amino]imidazo[1,2-a]pyrazin-3-yl}benzamide]: the IC50 stood at 18 nM.

In the case of `CC(C)CNc1nc(-c2ccc(N(C)C)cc2)cn2c(-c3ccc(C(=O)NC4CC4)c(Cl)c3)cnc12` [Example 1-94, 2-chloro-N-cyclopropyl-4-{6-[4-(dimethylamino)phenyl]-8-[(2-methyl-propyl)amino]imidazo [1,2-a]pyrazin-3-yl} benzamide], the IC50 turned out to be 19.8 nM.

`CC(C)CNc1nc(-c2ccccc2CO)cn2c(-c3ccc(C(=O)NC4CC4)c(Cl)c3)cnc12` [Example 1-95, 2-chloro-N-cyclopropyl-4-{6-[2-(hydroxymethyl)phenyl]-8-[(2-methyl-propyl)amino]imidazo [1,2-a]pyrazin-3-yl} benzamide]: the IC50 turned out to be 5.3 nM.

Regarding `CN(C)c1ccc(-c2cn3c(-c4ccc(C(=O)NC5CC5)c(Cl)c4)cnc3c(NCCC(F)(F)F)n2)cc1` [Example 1-96, 2-chloro-N-cyclopropyl-4-{6-[4-(dimethylamino)phenyl]-8-[(3,3,3-trifluoropropyl)amino]imidazo[1,2-a]pyrazin-3-yl}benzamide], the IC50 is 22.6 nM.

Regarding `O=C(NC1CC1)c1ccc(-c2cnc3c(NCCC(F)(F)F)nc(-c4ccccc4CO)cn23)cc1Cl` [Example 1-97, 2-chloro-N-cyclopropyl-4-{6-[2-(hydroxymethyl)phenyl]-8-[(3,3,3-trifluoropropyl)amino]imidazo[1,2-a]pyrazin-3-yl}benzamide], the IC50 was determined as 5.1 nM.

As for `CC(C)(O)CNc1nc(-c2ccc(F)cc2)cn2c(-c3ccc(C(=O)NC4CC4)c(Cl)c3)cnc12` [Example 1-98, 2-chloro-N-cyclopropyl-4-{6-(4-fluorophenyl)-8-[(2-hydroxy-2-methyl-propyl)amino]imidazo [1,2-a]pyrazin-3-yl} benzamide], the IC50 stood at 12.9 nM.

Consider `CN(C)c1ccc(-c2cn3c(-c4ccc(C(=O)NC5CC5)c(Cl)c4)cnc3c(NCC(C)(C)O)n2)cc1` [Example 1-99, 2-chloro-N-cyclopropyl-4-{6-[4-(dimethylamino)phenyl]-8-[(2-hydroxy-2-methylpropyl)amino]imidazo[1,2-a]pyrazin-3-yl}benzamide], for which the IC50 was determined as 31.1 nM.

Regarding `CC(C)(O)CNc1nc(-c2ccccc2CO)cn2c(-c3ccc(C(=O)NC4CC4)c(Cl)c3)cnc12` [Example 1-100, 2-chloro-N-cyclopropyl-4-{6-[2-(hydroxymethyl)phenyl]-8-[(2-hydroxy-2-methylpropyl)amino]imidazo[1,2-a]pyrazin-3-yl}benzamide], the IC50 was 86.5 nM.

As to `CC(C)(O)CNc1nc(-c2ccn[nH]2)cn2c(-c3ccc(C(=O)NC4CC4)c(Cl)c3)cnc12` [Example 1-101, 2-chloro-N-cyclopropyl-4-{8-[(2-hydroxy-2-methyl-propyl)amino]-6-(1H-pyrazol-5-yl)imidazo [1,2-a]pyrazin-3-yl} benzamide], the IC50 came out at 91.3 nM.

With `CC(C)(O)CNc1nc(C2=CCOCC2)cn2c(-c3ccc(C(=O)NC4CC4)c(Cl)c3)cnc12` [Example 1-102, 2-chloro-N-cyclopropyl-4-{6-(3,6-dihydro-2H-pyran-4-yl)-8-[(2-hydroxy-2-methylpropyl)amino]imidazo[1,2-a]pyrazin-3-yl}benzamide], the IC50 turned out to be 99 nM.

Take `O=C(NC1CC1)c1ccc(-c2cnc3c(NCC4CCCO4)nc(-c4ccc(F)cc4)cn23)cc1Cl` (stereo not shown) [Example 1-103, 2-chloro-N-cyclopropyl-4-{6-(4-fluorophenyl)-8-[(tetrahydrofuran-2-ylmethyl)amino]imidazo [1,2-a]pyrazin-3-yl} benzamide]: the IC50 came to 28.7 nM.

For `CN(C)c1ccc(-c2cn3c(-c4ccc(C(=O)NC5CC5)c(Cl)c4)cnc3c(NCC3CCCO3)n2)cc1` (stereo not shown) [Example 1-105, 2-chloro-N-cyclopropyl-4-{6-[4-(dimethylamino)phenyl]-8-[(tetrahydro-furan-2-ylmethyl)amino]imidazo[1,2-a]pyrazin-3-yl}benzamide], the IC50 was 78.3 nM.

Take `O=C(NC1CC1)c1ccc(-c2cnc3c(NCC4CCCO4)nc(-c4ccccc4CO)cn23)cc1Cl` (stereo not shown) [Example 1-106, 2-chloro-N-cyclopropyl-4-{6-[2-(hydroxymethyl)phenyl]-8-[(tetrahydro-furan-2-ylmethyl)amino]imidazo[1,2-a]pyrazin-3-yl}benzamide]: the IC50 is 56.2 nM.

As for `Cn1nccc1CNc1nc(-c2ccc(F)cc2)cn2c(-c3ccc(C(=O)NC4CC4)c(Cl)c3)cnc12` [Example 1-107, 2-chloro-N-cyclopropyl-4-[6-(4-fluorophenyl)-8-{[(1-methyl-1H-pyrazol-5-yl)methyl]amino}imidazo[1,2-a]pyrazin-3-yl]benzamide], the half-inhibitory concentration (IC50) was 13.2 nM.

Take `CN(C)c1ccc(-c2cn3c(-c4ccc(C(=O)NC5CC5)c(Cl)c4)cnc3c(NCc3ccnn3C)n2)cc1` [Example 1-108, 2-chloro-N-cyclopropyl-4-(6-[4-(dimethylamino)phenyl]-8-{[(1-methyl-1H-pyrazol-5-yl)methyl]amino}imidazo [1,2-a]pyrazin-3-yl) benzamide]: the IC50 stood at 43.9 nM.

For `CC(C)CNc1nc(-c2ccc(F)cc2)cn2c(-c3ccc(C(=O)NC4CC4)c(F)c3)cnc12` [Example 1-109, N-cyclopropyl-2-fluoro-4-{6-(4-fluorophenyl)-8-[(2-methylpropyl)amino]imidazo[1,2-a]pyrazin-3-yl}benzamide], the IC50 amounted to 5.3 nM.

With `CC(C)CNc1nc(-c2ccc(N(C)C)cc2)cn2c(-c3ccc(C(=O)NC4CC4)c(F)c3)cnc12` [Example 1-110, N-cyclopropyl-4-{6-[4-(dimethylamino)phenyl]-8-[(2-methylpropyl)amino]imidazo[1,2-a]pyrazin-3-yl}-2-fluoro-benzamide], the IC50 stood at 12.6 nM.

In the case of `CC(C)CNc1nc(-c2ccccc2CO)cn2c(-c3ccc(C(=O)NC4CC4)c(F)c3)cnc12` [Example 1-111, N-cyclopropyl-2-fluoro-4-{6-[2-(hydroxymethyl)phenyl]-8-[(2-methyl-propyl)amino]imidazo [1,2-a]pyrazin-3-yl} benzamide], the IC50 turned out to be 3 nM.

Regarding `O=C(NC1CC1)c1ccc(-c2cnc3c(NCCC(F)(F)F)nc(-c4ccc(F)cc4)cn23)cc1F` [Example 1-112, N-cyclopropyl-2-fluoro-4-{6-(4-fluorophenyl)-8-[(3,3,3-trifluoropropyl)amino]imidazo[1,2-a]pyrazin-3-yl}benzamide], the IC50 came to 2.6 nM.

On to `CN(C)c1ccc(-c2cn3c(-c4ccc(C(=O)NC5CC5)c(F)c4)cnc3c(NCCC(F)(F)F)n2)cc1` [Example 1-113, N-cyclopropyl-4-{6-[4-(dimethylamino)phenyl]-8-[(3,3,3-trifluoropropyl)amino]imidazo[1,2-a]pyrazin-3-yl}-2-fluoro-benzamide], for which the 50% inhibitory concentration (IC50) stood at 11.2 nM.
